Test results reported in the NIST ThermoML archive (doi:10.1021/je9008014).
Numbers after ± are expanded uncertainties.

Legend:
[1] = 101 kPa, Liquid; for mass density: Pycnometric method
[2] = xn = mol fraction of the nth substance listed; details: 101 kPa, Liquid, x2 = 0

Row | viscosity ([1]; 293.15 K) | mass density ([1]; 293.15 K) | viscosity ([1]; 298.15 K) | mass density ([1]; 298.15 K) | viscosity ([1]; 303.15 K) | mass density ([1]; 303.15 K) | mass density ([1]; 308.15 K) | viscosity ([1]; 313.15 K) | mass density ([1]; 313.15 K) | viscosity ([1]; 323.15 K) | mass density ([1]; 323.15 K) | viscosity ([1]; 333.15 K) | mass density ([1]; 333.15 K) | Compound | viscosity ([2]; 293.15 K) | viscosity ([2]; 303.15 K) | viscosity ([2]; 313.15 K) | viscosity ([2]; 323.15 K) | mass density ([2]; 333.15 K, Pycnometric method) | viscosity ([2]; 333.15 K)
1 | 7.796 ± 0.16 mPa·s | 1020.6 ± 2.1 kg/m3 | 6.739 ± 0.14 mPa·s | 1016.3 ± 2.1 kg/m3 | 5.657 ± 0.12 mPa·s | 1011.9 ± 2.1 kg/m3 | 1008.1 ± 2.1 kg/m3 | 4.185 ± 0.094 mPa·s | 1003.9 ± 2.1 kg/m3 | 3.326 ± 0.076 mPa·s | 995.5 ± 2 kg/m3 | 2.627 ± 0.061 mPa·s | 986.7 ± 2 kg/m3 | CCOCCOCCOCCO [2-(2-(2-ethoxyethoxy)ethoxy)ethanol] |  |  |  |  |  | 
2 |  |  |  |  |  |  |  |  |  |  |  |  |  | O [water] + CCOCCOCCOCCO | 1.005 ± 0.025 mPa·s | 0.8007 ± 0.02 mPa·s | 0.656 ± 0.017 mPa·s | 0.5494 ± 0.015 mPa·s | 983.2 ± 2 kg/m3 | 0.4688 ± 0.013 mPa·s
